test system: HBV; assay: HBV infection in HepG2-NTCP cells (HBeAg AlphaLISA in supernatants); type: cell-based; conditions: Hepatitis B virus, 192 h, read-out: Cellular EC50 (μM)
How it was run: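 Readout was day-8 supernatant HBeAg by AlphaLISA, with EC50 set against DMSO controls and binned A<0.1 μM, B 0.1-1 μM, C>1 μM. Compounds were added 2 h before HBV (2000 GE/cell, 4% PEG, 0.5% DMSO) to HepG2-NTCP A3 cells; from day 1 medium held 2.5% DMSO.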

SMILES | EC50 [µM]
CCOP(=O)(OCC)c1cccc(-c2cc3c(cc2Cl)N(c2ccccc2)C[C@@H](CC(C)C)N(C)S3(=O)=O)c1 [Example 169] | > 1

same assay, conditions: Hepatitis B virus, 192 h; HBV infection of HepG2-NTCP cells; HBeAg in supernatants at day 8 post infection; read-out: Cellular EC50

SMILES | EC50 [µM]
CN1[C@H](C2CCC2)CN(c2ccccc2)c2cc(Cl)c(-c3ccc(F)c(C(=O)O)c3)cc2S1(=O)=O [Example 80, (R)-5-(7-chloro-3-cyclobutyl-2-methyl-1,1-dioxido-5-phenyl-2,3,4,5-tetrahydrobenzo[f][1,2,5]thiadiazepin-8-yl)-2-fluorobenzoic acid] | < 0.1
CN1[C@H](C2CCCCC2)CNc2cc(C3CCN(C(=O)OC(C)(C)C)CC3)c(-c3ccc(F)c(C(=O)O)c3)cc2S1(=O)=O [Example 584, (R)-5-(7-(1-(tert-butoxycarbonyl)piperidin-4-yl)-3-cyclohexyl-2-methyl-1,1-dioxido-2,3,4,5-tetrahydrobenzo[f][1,2,5]thiadiazepin-8-yl)-2-fluorobenzoic acid] | 0.1 to 1
CC(C)C[C@@H]1CN(c2ccccc2)c2cc(Cl)c(-c3ccc4onc(N)c4c3)cc2S(=O)(=O)N1C [Example 170] | > 1
CN1[C@H](C2CCCCC2)CN(c2ccc(C#N)cc2)c2cc(Cl)c(-c3ccc(F)c(C(=O)O)c3)cc2S1(=O)=O [Example 290] | 0.1 to 1
CN1[C@H](C2CCCCC2)CN(c2ccccc2)c2cc(N3CCCCC3)c(-c3ccc(Cl)c(C(=O)O)c3)cc2S1(=O)=O [Example 558, (R)-2-chloro-5-(3-cyclohexyl-2-methyl-1,1-dioxido-5-phenyl-7-(piperidin-1-yl)-2,3,4,5-tetrahydrobenzo[f][1,2,5]thiadiazepin-8-yl)benzoic acid] | < 0.1
CN1[C@H](CNC(C)(C)C)CN(c2ccccc2)c2cc(Cl)c(-c3ccc(F)c(C(=O)O)c3)cc2S1(=O)=O [Example 114] | > 1
CN1[C@H](C2CCCCC2)CN(c2ccccc2)c2cc(OCc3nccs3)c(-c3ccc(F)c(C(=O)O)c3)cc2S1(=O)=O [Example 340] | < 0.1
Cc1ccc(Cl)c(Oc2cc3c(cc2-c2ccc(F)c(C(=O)O)c2)S(=O)(=O)N(C)[C@H](CC(C)C)CN3c2ccccc2)c1 [Example 436] | < 0.1
CC(C)CC1CN(c2ccccc2)c2cc(Cl)c(-c3cc(C(=O)O)n(C)n3)cc2S(=O)(=O)N1C (stereo not drawn) [Example 39] | 0.1 to 1
CN1[C@H](C2CC=CCO2)CN(c2ccccc2)c2cc(Cl)c(-c3ccc(F)c(C(=O)O)c3)cc2S1(=O)=O (single isomer, unassigned) [Example 103] | 0.1 to 1
CN1[C@H](CC2CC2)CN(c2ccccc2)c2cc(Cl)c(-c3ccc(F)c(C(=O)O)c3)cc2S1(=O)=O [Example 73] | < 0.1
CN1[C@H](C2CCCCC2)CN(c2ccccc2)c2cc(Cl)c(-c3cc(NC(=O)OC4CCCC4)c(C(=O)O)s3)cc2S1(=O)=O [Example 251] | < 0.1
CN1[C@H](C2CCCCC2)CN(c2ccccc2)c2cc(OCc3ncco3)c(-c3ccc(F)c(C(=O)O)c3)cc2S1(=O)=O [Example 344] | < 0.1
CN1[C@H](C2CCC2)CN(c2ccccc2)c2cc(Oc3ccccc3F)c(-c3ccc(F)c(C(=O)O)c3)cc2S1(=O)=O [Example 463] | < 0.1
CCCCC1CN(c2ccccc2)c2cc(Cl)c(-c3ccc(F)c(C(=O)O)c3)cc2S(=O)(=O)N1C (stereo not drawn) [Example 71] | 0.1 to 1
CCCC[C@@H]1CN(c2ccccc2)c2cc(-n3nnnc3C)c(-c3ccc(F)c(C(=O)O)c3)cc2S(=O)(=O)N1C [Example 525] | > 1
CN1[C@H](CC2CCC2)CN(c2ccccc2)c2cc(Cl)c(-c3ccc(Cl)c(C(=O)O)c3)cc2S1(=O)=O [Example 76] | 0.1 to 1
CCCOC(=O)Nc1cc(-c2cc3c(cc2Cl)N(c2ccccc2)C[C@@H](C2CCCCC2)N(C)S3(=O)=O)sc1C(=O)O [Example 243] | < 0.1
CN1[C@H](C2CCCCC2)CN(c2ccccc2)c2cc(OCc3ccco3)c(-c3ccc(F)c(C(=O)O)c3)cc2S1(=O)=O [Example 334] | < 0.1
CN1[C@H](C2CCCCC2)CN(c2ccccc2)c2cc(C3CCNCC3)c(-c3ccc(F)c(C(=O)O)c3)cc2S1(=O)=O [Example 596] | > 1
Cc1csc(COc2cc3c(cc2-c2cc(F)c(C(=O)O)s2)S(=O)(=O)N(C)[C@H](C2CCCCC2)CN3c2ccccc2)n1 [Example 501] | < 0.1
CN1[C@H](C2CCCCC2)CN(c2ccccc2)c2cc(OCC3CN(C(=O)OC(C)(C)C)C3)c(-c3cc(F)c(C(=O)O)s3)cc2S1(=O)=O [Example 509] | < 0.1
CN1[C@H](C2CCCCC2)CN(c2ccccc2)c2cc(OCc3ccc(OC(F)(F)F)cc3)c(-c3cc(F)c(C(=O)O)s3)cc2S1(=O)=O [Example 507] | < 0.1
CC(C)C[C@@H]1CN(c2ccccc2)c2cc(Oc3cc(Cl)cc(Cl)c3)c(-c3ccc(F)c(C(=O)O)c3)cc2S(=O)(=O)N1C [Example 435] | < 0.1

SMILES | EC50 [µM]
CC(C)CC1CN(c2ccccc2)c2cc(Cl)c(-c3ccc(Cl)c(C(=O)O)c3)cc2S(=O)(=O)N1C (stereo not drawn) [Example 38] | < 0.1
CN1[C@H](C2CCCCC2)CN(c2ccccc2)c2cc(Cl)c(-c3cccc(C(=O)O)c3Cl)cc2S1(=O)=O [Example 152, (R)-2-chloro-3-(7-chloro-3-cyclohexyl-2-methyl-1,1-dioxido-5-phenyl-2,3,4,5-tetrahydrobenzo[f][1,2,5]thiadiazepin-8-yl)benzoic acid] | > 1
CCCC[C@@H]1CN(c2ccccc2)c2cc(Oc3ccccc3Cl)c(-c3ccc(F)c(C(=O)O)c3)cc2S(=O)(=O)N1C [Example 422] | 0.1 to 1
CN1[C@H](C2CCC2)CN(c2ccccc2)c2cc(OCC(F)(F)F)c(-c3ccc(F)c(C(=O)O)c3)cc2S1(=O)=O [Example 464] | 0.1 to 1
Cc1cc(F)cc(Oc2cc3c(cc2-c2ccc(F)c(C(=O)O)c2)S(=O)(=O)N(C)[C@H](C2CCCCC2)CN3c2ccccc2)c1 [Example 412] | < 0.1
CC(C)C[C@@H]1CN(c2ccccc2)c2cc(-c3ccc(F)cc3)c(-c3ccc(F)c(C(=O)O)c3)cc2S(=O)(=O)N1C [Example 573, (R)-2-fluoro-5-(7-(4-fluorophenyl)-3-isobutyl-2-methyl-1,1-dioxido-5-phenyl-2,3,4,5-tetrahydrobenzo[f][1,2,5]thiadiazepin-8-yl)benzoic acid] | < 0.1
CC(C)C[C@@H]1CN(c2ccccc2)c2cc(OC34CC5CC(CC(C5)C3)C4)c(-c3ccc(F)c(C(=O)O)c3)cc2S(=O)(=O)N1C [Example 441] | < 0.1
Cc1c(C(=O)O)cccc1-c1cc2c(cc1Cl)N(c1ccccc1)C[C@@H](C1CCCCC1)N(C)S2(=O)=O [Example 144, (R)-3-(7-chloro-3-cyclohexyl-2-methyl-1,1-dioxido-5-phenyl-2,3,4,5-tetrahydrobenzo[f][1,2,5]thiadiazepin-8-yl)-2-methylbenzoic acid] | > 1
CN1[C@H](C2CCCCC2)CN(c2ccccc2)c2cc(Cl)c(-c3ccc(C(F)(F)F)c(C(=O)O)c3)cc2S1(=O)=O [Example 143, (R)-5-(7-chloro-3-cyclohexyl-2-methyl-1,1-dioxido-5-phenyl-2,3,4,5-tetrahydrobenzo[f][1,2,5]thiadiazepin-8-yl)-2-(trifluoromethyl)benzoic acid] | 0.1 to 1
CCCC[C@@H]1CN(c2ccccc2)c2cc(Oc3ccccc3C(F)(F)F)c(-c3ccc(F)c(C(=O)O)c3)cc2S(=O)(=O)N1C [Example 419] | < 0.1
CC(C)CC1CN(c2ccc(F)cc2)c2cc(Cl)c(-c3cccc(C(=O)O)c3)cc2S(=O)(=O)N1C (stereo not drawn) [Example 331] | 0.1 to 1
CC(C)C[C@@H]1CN(c2ccccc2)c2cc(OCC3CCCN3C)c(-c3ccc(F)c(C(=O)O)c3)cc2S(=O)(=O)N1C (stereo partly drawn) [Example 449] | > 1
CC(C)C[C@@H]1CN(c2ccccc2)c2cc(Nc3cccc(F)c3)c(-c3ccc(Cl)c(C(=O)O)c3)cc2S(=O)(=O)N1C [Example 547] | 0.1 to 1
CN1[C@H](CN2CCC(F)(F)CC2)CN(c2ccccc2)c2cc(Cl)c(-c3ccc(F)c(C(=O)O)c3)cc2S1(=O)=O [Example 113] | > 1
CN1[C@H](C2CCCCC2)CN(c2ccccc2)c2cc(Cl)c(-c3cc(F)c(N)c(C(=O)O)c3)cc2S1(=O)=O [Example 190] | 0.1 to 1
CC(C)OC[C@@H]1CN(c2ccccc2)c2cc(Cl)c(-c3ccc(F)c(C(=O)O)c3)cc2S(=O)(=O)N1C [Example 96, (S)-5-(7-chloro-3-(isopropoxymethyl)-2-methyl-1,1-dioxido-5-phenyl-2,3,4,5-tetrahydrobenzo[f][1,2,5]thiadiazepin-8-yl)-2-fluorobenzoic acid] | 0.1 to 1
CC(C)C[C@@H]1CN(c2ccccc2)c2cc(Cl)c(-c3ccc4o[nH]c(=O)c4c3)cc2S(=O)(=O)N1C [Example 180] | 0.1 to 1
CCCC[C@@H]1CN(c2ccccc2)c2cc(N(C)C)c(-c3ccc(F)c(C(=O)O)c3)cc2S(=O)(=O)N1C [Example 524] | < 0.1
CC(C)C[C@@H]1CN(c2ccccc2)c2cc(Oc3ccc(C(F)(F)F)cc3)c(-c3ccc(F)c(C(=O)O)c3)cc2S(=O)(=O)N1C [Example 426] | 0.1 to 1
CC(C)C[C@@H]1CN(c2ccccc2)c2cc(O[C@@H]3C[C@H](C)CCC3C(C)C)c(-c3ccc(F)c(C(=O)O)c3)cc2S(=O)(=O)N1C (stereo partly drawn) [Example 442] | < 0.1
Cc1cc(-c2cc3c(cc2OC2CCC2)N(c2ccccc2)C[C@@H](C2CCCCC2)N(C)S3(=O)=O)sc1C(=O)O [Example 513, (R)-5-(7-cyclobutoxy-3-cyclohexyl-2-methyl-1,1-dioxido-5-phenyl-2,3,4,5-tetrahydrobenzo[f][1,2,5]thiadiazepin-8-yl)-3-methylthiophene-2-carboxylic acid] | < 0.1
CN1[C@H](C2CCOCC2)CN(c2ccccc2)c2cc(Cl)c(-c3ccc(F)c(C(=O)O)c3)cc2S1(=O)=O [Example 105, (R)-5-(7-chloro-2-methyl-1,1-dioxido-5-phenyl-3-(tetrahydro-2H-pyran-4-yl)-2,3,4,5-tetrahydrobenzo[f][1,2,5]thiadiazepin-8-yl)-2-fluorobenzoic acid] | 0.1 to 1
CC(C)C[C@@H]1CN(c2ccccc2)c2cc(Cl)c(-c3ccc4oncc4c3)cc2S(=O)(=O)N1C [Example 185] | 0.1 to 1

Reference: patent US20240368096A1 (Enanta Pharmaceuticals, Inc., priority 2022, published 2024)
